Source: patent publication US20220249441A1, “Homodimeric Tobramycin Adjuvant Repurposes Novobiocin as an Effective Antibacterial Agent Against Gram-Negative Bacteria” (priority 2019, published 2022)

What was measured:
E. cloacae = assay: Checkerboard assay (antibiotic + adjuvant combination MIC); type: cell-based, Enterobacter cloacae; conditions: for MIC of Novobiocin +Compound 1: 1 at ≤7.1 μM; for Fold Potentiation: novobiocin + 1 at ≤7.1 μM
Method: (§1) Antimicrobial Susceptibility Assay. The in vitro antimicrobial activity of all compounds/antibiotics against a panel of bacteria was evaluated by microbroth dilution method in accordance with the Clinical and Laboratory Standards Institute (CLSI) guidelines (using ATCC strains as quality control strains) (54). Overnight grown bacterial cultures were diluted in saline to achieve a 0.5 McFarland turbidity, followed by 1:50 dilution in Mueller-Hinton broth (MHB) for inoculation to a final concentration of approximately 5×10^5 CFU/mL. […] The lowest concentration that prevented the visible growth of bacteria was defined as the MIC for each antimicrobial agent. The broth with or without bacterial cells was used as positive or negative control, respectively.
(§2) Checkerboard Assay. Combination studies with different antibiotics were performed in 96-well plates as previously described (19). Briefly, the antibiotic of interest was serially diluted in MHB along the abscissa while the adjuvant (tobramycin homodimer) was serially diluted in MHB along the ordinate. This creates a 10×7 matrices wherein each well consists of a combination of different antibiotic and adjuvant concentrations. Overnight grown bacterial cultures were diluted in saline to achieve a 0.5 McFarland turbidity, followed by 1:50 dilution in Mueller-Hinton broth (MHB) for inoculation to a final concentration of approximately 5×10^5 CFU/mL. […] MIC was recorded as wells with the lowest concentration of drugs with no bacterial growth. The fractional inhibitory concentration (FIC) for each antibiotic was calculated by dividing the MIC of the antibiotic in the presence of adjuvant by the MIC of the antibiotic alone. Similarly, the FIC of adjuvant was calculated by dividing the MIC of the adjuvant in the presence of antibiotic by the MIC of the adjuvant alone. FIC index is the sum of both FICs. FIC indices of ≤0.5 were deemed synergistic; >0.5-4, no interaction; and >4, antagonistic.

MDR A. baumannii = assay: Galleria mellonella in vivo larvae-infection model; conditions: single dose 100 mg/kg, agent alone; after 24 h
Method: Galleria mellonella In vivo Larvae-Infection Model. In vivo synergistic effects were determined using Galleria mellonella infection model, as previously described (49). Briefly, larvae were purchased from The Worm Lady Live Feeder (ON, Canada), stored in their natural habitat at 16° C., and used within 10 days of delivery. The larvae (average weight of 250 mg) were used for tolerability and efficacy studies. Tolerability study was performed by injecting a 10 μL aliquot of antimicrobial agents only at concentrations equivalent to 100 mg/kg or 200 mg/kg. The larvae (ten in each group) were incubated at 37° C. and monitored for 96 h. For efficacy studies, the virulence and bacterial load required to kill 100% of the larvae within 24 h (with no treatment) was first determined, which is approximately 10 CFU. Overnight grown culture of respective MDR A. baumannii isolate was standardized to 0.5 McFarland standard and diluted in PBS to a final concentration of 10^3 CFU/mL. A 10 μL aliquot of this solution (˜10 CFU) was injected into each larva and incubated for 3 h at 37° C. […] Larvae treated with 10 μL of PBS or high concentrations of test antibiotics served as negative and positive control, respectively. The larvae were incubated at 37° C. in Petri dishes lined with filter paper and scored for survivability every 6 h for up to 36 h. […]

K. pneumoniae = assay: Checkerboard assay (antibiotic + adjuvant combination MIC); type: cell-based, Klebsiella pneumoniae; conditions: for MIC of Novobiocin +Compound 1: 1 at ≤7.1 μM; for Fold Potentiation: novobiocin + 1 at ≤7.1 μM
Method: as §1, §2

A. baumannii = assay: as above; type: cell-based, Acinetobacter baumannii; conditions: for MIC of Novobiocin +Compound 1: 1 at ≤7.1 μM; for Fold Potentiation: novobiocin + 1 at ≤7.1 μM
Method: as §1, §2

P. aeruginosa = assay: as above; type: cell-based, Pseudomonas aeruginosa; conditions: for MIC of Novobiocin +Compound 1: 1 at ≤7.1 μM; for MIC of Novobiocin + adjuvant (7.1 μM): PMBN or 1 at 7.1 μM
MRSE 61589 = assay: MIC and combination against Gram-positive bacteria; type: cell-based
Method: (§3) Next, we investigated whether tobramycin by itself would potentiate novobiocin against Gram-negative bacteria.
as §1

MRSA ATCC 33592 = assay: MIC and combination against Gram-positive bacteria; type: cell-based; conditions: MRSA ATCC 33592
Method: as §3, §1

E. faecium ATCC 27270 = assay: MIC and combination against Gram-positive bacteria; type: cell-based
Method: as §3, §1

A. baumannii ATCC 17978 = assay: microbe, parasite or virus in culture; type: cell-based, Acinetobacter baumannii; conditions: seven serial passages
Method: Development of Resistance Study. […] Tobramycin and colistin were included as controls. At 24-hour intervals, the cultures were assessed for growth. […] This serial passaging was repeated for 8 days.

E. coli = assay: Checkerboard assay (antibiotic + adjuvant combination MIC); type: cell-based, Escherichia coli; conditions: for MIC of Novobiocin +Compound 1: 1 at ≤7.1 μM; for MIC of Novobiocin + adjuvant (7.1 μM): PMBN or 1 at 7.1 μM; for Fold Potentiation: novobiocin + 1 at ≤7.1 μM
Method: as §1, §2

## NC[C@H]1O[C@H](O[C@H]2[C@H](OCCCCc3cn(CCCCO[C@@H]4[C@@H](O[C@H]5O[C@H](CO)[C@@H](O)[C@H](N)[C@H]5O)[C@H](N)C[C@H](N)[C@H]4O[C@H]4O[C@H](CN)[C@@H](O)C[C@H]4N)nn3)[C@@H](O[C@H]3O[C@H](CO)[C@@H](O)[C@H](N)[C@H]3O)[C@H](N)C[C@@H]2N)[C@H](N)C[C@@H]1O.O=C(O)C(F)(F)F.O=C(O)C(F)(F)F.O=C(O)C(F)(F)F.O=C(O)C(F)(F)F.O=C(O)C(F)(F)F.O=C(O)C(F)(F)F.O=C(O)C(F)(F)F.O=C(O)C(F)(F)F.O=C(O)C(F)(F)F.O=C(O)C(F)(F)F [Compound 1, Tobramycin Homodimer 1]
E. cloacae; E. cloacae 117029
  MIC of Novobiocin +Compound 1: 8 µg/mL
  Fold Potentiation: 128 fold
E. cloacae; E. cloacae 118568
  MIC of Novobiocin +Compound 1: 32 µg/mL
  Fold Potentiation: 32 fold
E. cloacae; E. cloacae 121187
  MIC of Novobiocin +Compound 1: 8 µg/mL
  Fold Potentiation: 8 fold
E. cloacae; EC 118568, PMBN or 1 at 7.1 μM
  MIC of Novobiocin + adjuvant (7.1 μM): 32 µg/mL
MDR A. baumannii
  mortality of infected larvae: 100%
K. pneumoniae; K. pneumoniae 113250
  MIC of Novobiocin +Compound 1: 16 µg/mL
  Fold Potentiation: 32 fold
K. pneumoniae; K. pneumoniae 113254
  MIC of Novobiocin +Compound 1: 16 µg/mL
  Fold Potentiation: 16 fold
K. pneumoniae; K. pneumoniae 116381
  MIC of Novobiocin +Compound 1: 8 µg/mL
  Fold Potentiation: 128 fold
K. pneumoniae; KP 113254, PMBN or 1 at 7.1 μM
  MIC of Novobiocin + adjuvant (7.1 μM): 16 µg/mL
A. baumannii; A. baumannii 027
  MIC of Novobiocin +Compound 1: 0.5 µg/mL
  Fold Potentiation: 16 fold
A. baumannii; A. baumannii 031
  MIC of Novobiocin +Compound 1: 0.5 µg/mL
  Fold Potentiation: 16 fold
A. baumannii; A. baumannii 92247
  MIC of Novobiocin +Compound 1: 0.25 µg/mL
  Fold Potentiation: 16 fold
A. baumannii; A. baumannii 110193
  MIC of Novobiocin +Compound 1: 1 µg/mL
  Fold Potentiation: 256 fold
A. baumannii; A. baumannii ATCC 17978
  MIC of Novobiocin +Compound 1: 0.5 µg/mL
  Fold Potentiation: 32 fold
A. baumannii; A. baumannii LAC-4
  MIC of Novobiocin +Compound 1: 0.5 µg/mL
  Fold Potentiation: 16 fold
A. baumannii; AB 92247, PMBN or 1 at 7.1 μM
  MIC of Novobiocin + adjuvant (7.1 μM): 0.25 µg/mL
A. baumannii; colistin-resistant mutant B of A. baumannii ATCC 17978
  potentiation of novobiocin: did not potentiate
A. baumannii; novobiocin-resistant mutant A of A. baumannii ATCC 17978
  fold potentiation of novobiocin: 16 fold
A. baumannii; wild-type and MDR A. baumannii clinical isolates, ≤7.1 μM of compound 1
  MIC of novobiocin in the presence of compound 1: ≤ 1 µg/mL
P. aeruginosa; P. aeruginosa 259-96918
  MIC of Novobiocin +Compound 1: 8 µg/mL
P. aeruginosa; P. aeruginosa 260-97103
  MIC of Novobiocin +Compound 1: 1 µg/mL
P. aeruginosa; P. aeruginosa 262-101856
  MIC of Novobiocin +Compound 1: 8 µg/mL
P. aeruginosa; P. aeruginosa 264-104354
  MIC of Novobiocin +Compound 1: 8 µg/mL
P. aeruginosa; P. aeruginosa 91433
  MIC of Novobiocin +Compound 1: 1 µg/mL
P. aeruginosa; P. aeruginosa 100036
  MIC of Novobiocin +Compound 1: 8 µg/mL
P. aeruginosa; P. aeruginosa 101243
  MIC of Novobiocin +Compound 1: 1 µg/mL
P. aeruginosa; P. aeruginosa 101885
  MIC of Novobiocin +Compound 1: 8 µg/mL
P. aeruginosa; P. aeruginosa 114228
  MIC of Novobiocin +Compound 1: 16 µg/mL
P. aeruginosa; P. aeruginosa PAO1
  MIC of Novobiocin +Compound 1: 4 µg/mL
P. aeruginosa; PA 91433
  MIC of Novobiocin + adjuvant (7.1 μM): 1 µg/mL
P. aeruginosa; PA 101243
  MIC of Novobiocin + adjuvant (7.1 μM): 1 µg/mL
P. aeruginosa; PA 114228
  MIC of Novobiocin + adjuvant (7.1 μM): 16 µg/mL
P. aeruginosa; PAO1 (wild-type)
  MIC of Novobiocin +7.1 μM Compound 1: 4 µg/mL
P. aeruginosa; PAO1
  MIC of Novobiocin + adjuvant (7.1 μM): 4 µg/mL
P. aeruginosa; PAO200 (efflux-deficient)
  MIC of Novobiocin +7.1 μM Compound 1: 0.125 µg/mL
P. aeruginosa; PAO750 (efflux-deficient)
  MIC of Novobiocin +7.1 μM Compound 1: 0.125 µg/mL
MRSE 61589
  effect of addition of compound 1 on activity of novobiocin: did not improve
MRSA ATCC 33592
  effect of addition of compound 1 on activity of novobiocin: did not improve
E. faecium ATCC 27270
  effect of addition of compound 1 on activity of novobiocin: did not improve
A. baumannii ATCC 17978
  resistance phenotype after exposure to sub-MIC levels: did not generate tobramycin-resistant phenotype
E. coli; E. coli 94393
  MIC of Novobiocin +Compound 1: 2 µg/mL
  MIC of Novobiocin + adjuvant (7.1 μM): 2 µg/mL
  Fold Potentiation: 64 fold
E. coli; E. coli 94474
  MIC of Novobiocin +Compound 1: 16 µg/mL
  MIC of Novobiocin + adjuvant (7.1 μM): 16 µg/mL
  Fold Potentiation: 16 fold
E. coli; E. coli 107115
  MIC of Novobiocin +Compound 1: 8 µg/mL
  Fold Potentiation: 16 fold
E. coli; E. coli ATCC 25922
  MIC of Novobiocin +Compound 1: 2 µg/mL
  Fold Potentiation: 32 fold
